Data published in PubChem BioAssay (NCI).
Where “and” joins values, the source holds several entries; their conditions need not be identical. Equal values may be shown once.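 Test compounds were applied to cells in 96-well plates for 48 hours at 5 doses. TGI marks complete inhibition of growth.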

What was measured:
Experiment in all cases: NCI anticancer screen, dose series, 48 h
TK-10 renal = tested on: TK-10 renal
SK-MEL-28 melanoma = tested on: SK-MEL-28 melanoma
HT29 colon = tested on: HT29 colon
HOP-62 NSCLC = tested on: HOP-62 NSCLC
KM12 colon = tested on: KM12 colon
NCI-H23 lung = tested on: NCI-H23 lung
PC-3 prostate = tested on: PC-3 prostate
MOLT-4 leukemia = tested on: MOLT-4 leukemia
MDA-MB-231 breast = tested on: MDA-MB-231 breast
NCI-H460 lung = tested on: NCI-H460 lung
DU-145 prostate = tested on: DU-145 prostate
A549 NSCLC = tested on: A549 NSCLC
HOP-92 NSCLC = tested on: HOP-92 NSCLC
RPMI-8226 leukemia = tested on: RPMI-8226 leukemia
MDA-N = tested on: MDA-N
NCI-H522 lung = tested on: NCI-H522 lung
SK-MEL-2 melanoma = tested on: SK-MEL-2 melanoma
SF-268 CNS = tested on: SF-268 CNS
T-47D breast = tested on: T-47D breast
RXF 393 renal = tested on: RXF 393 renal

| Structure (SMILES) | TGI (TK-10 renal) [µM] | TGI (SK-MEL-28 melanoma) | TGI (HT29 colon) | TGI (HOP-62 NSCLC) | TGI (KM12 colon) [µM] | TGI (NCI-H23 lung) [µM] | TGI (PC-3 prostate) [µM] | TGI (MOLT-4 leukemia) | TGI (MDA-MB-231 breast) [µM] | TGI (NCI-H460 lung) | TGI (DU-145 prostate) [µM] | TGI (A549 NSCLC) | TGI (HOP-92 NSCLC) [µM] | TGI (RPMI-8226 leukemia) | TGI (MDA-N) [µM] | TGI (NCI-H522 lung) [µM] | TGI (SK-MEL-2 melanoma) [µM] | TGI (SF-268 CNS) [µM] | TGI (T-47D breast) [µM] | TGI (RXF 393 renal) [µM] |
| --- | --- | --- | --- | --- | --- | --- | --- | --- | --- | --- | --- | --- | --- | --- | --- | --- | --- | --- | --- | --- |
| COc1ccc(C2=CN3CCC[C@H]3C=C2c2cc(O)c(OC)c(OC)c2)cc1OC | 0.153 | 0.101 µM and 0.0107 µM | 0.113 µM and 0.0377 µM | 0.122 µM and 0.148 µM | 0.0394 | 0.0278 | 0.0538 | 183 nM and 393 nM | 0.15 | 0.0267 µM and 0.0127 µM | 0.254 | 274 nM and 172 nM | 0.0294 | 0.0806 µM and 0.202 µM | 0.104 | 0.026 | 0.0161 | 0.112 | 0.0938 | 0.0288 |
| O=C1C[C@H](c2ccccc2)C2(C(=O)c3ccccc3C2=O)[C@H](c2ccccc2)C1 |  | > 100 µM | > 100 µM | 96 µM | > 100 | > 100 | > 100 | > 100000 nM | 80.2 | > 100 µM | > 100 |  | > 100 | > 100 µM | > 100 | > 100 | > 100 |  | > 100 | 50.5 |
| COc1cc(CNc2nc3cc(C(F)(F)F)ccc3nc2C)cc(OC)c1OC | 42.6 | 65 µM | 33.6 µM | 71.3 µM | 40 | 76.1 |  | 50700 nM | 29.3 | 36 µM | > 100 | > 100000 nM |  | 65.7 µM | 33.2 | 48.5 |  | > 100 | 40.4 | 44.7 |
| c1ccc(Nc2nnc(-c3nsc4ccccc34)o2)cc1 | > 100 | > 100 µM | > 100 µM | > 100 µM | > 100 | > 100 |  | > 100000 nM |  | > 100 µM |  | > 100000 nM | > 100 | > 100 µM |  |  | > 100 | > 100 |  | > 100 |
| CC1(C)[C@@H]2C[C@H]1C(Cc1cccc(C[C@H]3c4cc(-c5ccccn5)ncc4[C@H]4C[C@@H]3C4(C)C)c1)c1cc(-c3ccccn3)ncc12 (some centres not stated) | > 100 | > 100 µM | > 100 µM | 15.5 µM | > 76.9 | > 63.9 | > 47.2 | 1910 nM | > 100 | 12 µM | > 100 | > 100000 nM |  | 32.1 µM | > 100 | > 56.7 | > 100 | > 100 | > 100 | > 100 |
